Test results reported in patent publication EP1923473B1, “Bis-diglycolamides (BISDGA) as new extractants for lanthanides [Ln(III)] and actinides [An(III)] from aqueous high-level wastes” (Universidad Autónoma de Madrid, priority 2006, dated 2008).

Legend:
[1] = Eu/Am selectivity factor in extraction from 3 mol/L nitric acid; type: physicochemical; conditions: 0.1 mol/L in TPH/1-octanol (50:50)%vol; aqueous [HNO3] 3 mol/L
Procedure: 600 µL of the organic phase of the compound to be studied, previously equilibrated, were contacted with 600 µL of aqueous phase consisting of a 3 mol/L nitric acid solution spiked with 600 Bq of ^152Eu and 600 Bq of ^241Am. It was stirred vigorously by means of an oscillating shaker for 30 minutes and the phases were separated by centrifugation at 5000 rpm. 400 µL were taken from each of the phases for determining the concentration of the radionuclides ^152Eu and ^241Am. This determination was carried out by means of the high energy gamma spectrometry technique with a high-purity Ge detector (Canberra Inc.), using the 122 keV line for the determination of ^152Eu concentration and the 59.5 keV line for the determination of ^241Am concentration. The distribution coefficient was calculated by relating the concentration of each of the radionuclides in the organic phase and in the aqueous phase, according to the expression: DM = ([M]org)/([M]aq) [formula]
The Eu/Am selectivity factor was calculated by relating the corresponding distribution coefficients of Eu with those of Am in the same experimental conditions: SFEu/Am = DEu /DAm [formula]
The distribution coefficients and the selectivity factor of each of them were determined as indicated in sections A) to C).

[2] = Radiolytic stability, extraction capability after irradiation; type: physicochemical; conditions: for DEu / DAm: after 1000 kGy
Procedure: The tests of stability against irradiation were carried out in the NAYADE facility at CIEMAT site, with external ^60Co sources with an approximate activity of 5000 Ci, with a homogeneous irradiation flux. The dose rate applied in all the experiments was 4 kGy/h and integrated doses of 250 kGy, 500 kGy, 750 kGy and 1000 kGy were considered. The irradiation device consists of a metal cylinder which is introduced in a rack wherein the ^60CO sources are placed radially, such that the irradiation is homogeneous. The irradiation process is carried out submersing the device in a pool of water with a depth of 4 meters.
Irradiation tests of the solid compound (in the absence of solvent) and of the compound dissolved in the "n-dodecane/1-octanol (95:5)%vol" mixture, equilibrated with 3 mol/L nitric acid, were carried out. The organic solutions were prepared and equilibrated as detailed in the previous sections A) and B).
Once each programmed integrated dose was reached, the extraction capability of the organic samples was evaluated as detailed in section C).
The irradiation of compound 4 in solid form (in the absence of solvent) and dissolved at a 0.1 mol/L concentration in the "n-dodecane/1-octanol 1 (95:5)%vol" mixture, equilibrated with 3 mol/L nitric acid, was carried out. The applied dose rate was 4 kGy/h and the considered integrated doses were 250 kGy, 500 kGy, 750 kGy and 1000 kGy. After each integrated dose, the extraction capability of Am(III) and Eu(III) was evaluated as described in section C.
The considered integrated doses in this experiment were 500 kGy and 1000 kGy at a dose rate of 4 kGy/h.

[3] = irradiated dissolved in n-dodecane/1-octanol (95:5)%vol, equilibrated with 3 mol/L nitric acid
[4] = irradiated in the absence of solvent

With “2-Dioctylcarbamoylmethoxy-N-[3-[3-(2-dioctylcarbamoyl-methoxyacetylamino)propoxy]propyl]acetamide [Compound 18]” the SFEu/Am [1] was 6.0, the DEu [2, 3] was 964 and the Dn ([2]; up to 1000 kGy, irradiated dissolved in n-dodecane/1-octanol (95:5)%vol, equilibrated with 3 mol/L nitric acid) was 531.
“2-Dioctylcarbamoylmethoxy-N-[3-[(2-dioctylcarbamoyl-methoxy-acetylamino)methyl]benzyl]acetamide [Compound 4]” gave an SFEu/Am [1] of 4.3, a DAm [2, 3] of 180 and a DEu [2, 3] of 780. It also gave a DAm [2, 4] of 540 and a DEu [2, 4] of 1000.
